Measured values: US7981875B2, “2″ oxo-voruscharin and derivatives thereof” (priority 2002, dated 2011)

Key:
[1] = tested on: HCT-15 human cancer cells; experiment: Cell cycle kinetics by flow cytometry (propidium iodide); assay type: cell-based; parameters: key to Effect on cell cycle kinetics, G0/G1 / Effect on cell cycle kinetics, S / Effect on cell cycle kinetics, G2/M: n.s. means no significant; ** means highly significant; *** very highly significant
Protocol: (§1) Cell lines were seeded in flasks (25 cm^2 area) containing 7 ml of culture medium. After 48 hours incubation at 37° C. the cell culture medium was replaced by a fresh medium in which the substance to be tested had been dissolved at the different concentrations required. Uscharin and 2″ oxo-voruscharin were tested at concentrations, which kill 50% and 30% of the cell population, represented by the IC50 and IC30 values, respectively. After 24 or 72 hours of treatment the cells were harvested in suspension, washed in Phosphate Buffer Saline (PBS) at 4° C. and permeabilized with 70% ethanol (at 4° C.) overnight at −20° C. The cells were then washed with PBS and incubated with propidium iodide solution (80 μg/ml) for 30 minutes at 37° C. and afterward at 4° C. overnight. Ribonuclease A (3% V/V) was added to the PI solution to break doubled-stranded RNA. The portrait of the cell cycle was established for each sample. Software incorporated into the flow cytometer was used to define precisely the percentage of cells in the different cell cycle phases. Each cell cycle phase was reported in terms of peak surface and calculated as a percentage. The surface of the entire cell cycle was 100%. Each experiment was carried out 3 times. The mean percentage of each different phase and the standard error of the related mean were calculated. Each cell cycle phase of a given condition was compared with the same cell cycle phase of control. The non-treated cells constituted control.
(§2) Uscharin and 2″ oxo-voruscharin are highly toxic to human tumor cell lines. The concentrations used in the flow cytometry experiments were chosen in accordance with the MTT results (example 2). Three human cancer cell lines, Hs683, J82, and HCT-15 were tested and doses that killed 30 and 50 percent of the cells were applied to investigate whether uscharin and 2″ oxo-voruscharin promoted an accumulation in one of the cell cycle phases when the cell cultures were treated for 24 or 72 hours with increasing concentrations of the compounds. The IC50 and IC30 values for uscharin and 2″ oxo-voruscharin corresponding to the three tested cell lines are represented in Table E.

J82 human cancer cells = experiment: as above; assay type: cell-based; parameters: key to Effect on cell cycle kinetics, G0/G1 / Effect on cell cycle kinetics, S / Effect on cell cycle kinetics, G2/M: n.s. means no significant; ** means highly significant; *** very highly significant
Protocol: as §1, §2

A549 (lung cancer) = experiment: Orthotopic lung cancer model; assay type: in vivo, mice; settings: for T/C index: A549 orthotopic, three times a week
Protocol: (§3) Three types of results were obtained with in vivo anti-tumor pharmacology: 1) the cumulative toxicity of chemotherapeutic administrations through recording the weights of the tumor-bearing mice during treatment, 2) the actual anti-tumor effect exerted at tumor growth level. If the tumor models are grafted subcutaneously (s.c.), tumor size is measured three times a week by means of a caliper and expressed as an area (mm^2) by multiplying together the two largest perpendicular diameters, and 3) the gain in survival for the animals treated, which is evaluated by means of the T/C index. This index is the ratio between the median survival time of the group of treated animals (T) and that of the control group. The drug is considered to be active if the T/C value is above 130% (P<0.05), and toxic for a value lower than 70%.
(§4) The antitumoral activity of compound B was evaluated in different xenografted models: sub-cutanous model: MCF-7-TD5 (breast cancer) and C32 (melanoma cancer) and orthotopic model: A549 (lung cancer).
Lung cancer is the leading cause of cancer deaths worldwide. Most patients die of progressive metastatic disease despite aggressive local and systemic therapies. The pathogenesis of lung cancer remains highly elusive due to its aggressive biologic nature and considerable heterogeneity, as compared to other cancers. Orthotopic lung cancer models are described in the literature using endobronchial, intrathoracic or intravenous injection of tumor cell suspensions and by surgical implantation of fresh tumor tissue. The tumor cells are directly injected into the lung of nude mice. The advantages of orthotopic models include improved tumor take and enhanced invasive and metastatic properties.
Compound B was assayed at DMT/2 (40 mg/kg), DMT/4 (20 mg/kg) and DMT/8 (10 mg/kg) three times a week. […] These values are statistically significant.
FIG. 21 represents the death rate of nine mice in each of the control and test groups during the experiment. Kaplan-Meier statistical analysis was used. The statistics value underlines the general fit of the test control in comparison with the general fit of the control group. […] The level significance was p<0.05.

[2] = tested on: MCF-7-TD5 (breast cancer); experiment: Sub-cutaneous xenograft breast cancer model; assay type: in vivo, mice
Protocol: as §3, §4
The MCF-7-TD5 model described herein is a […] form of MCF-7 transfected with v-Ha-ras oncogene and with a neomycin-resistance gene. Compound B was assayed at MTD/8 (10 mg/kg) and MTD/16 (5 mg/kg) five times a week.
After s.c. injection of MCF-7-TD5 into untreated female nu/nu mice, the MCF-7 TD5 produced tumors after latency periods of 7 to 18 weeks. […] No oestradiol was used during the experiments described in this example.

C32 (melanoma cancer) = experiment: Sub-cutaneous melanoma cancer model; assay type: in vivo, mice; settings: for T/C index: three times a week
Protocol: as §3, §4
Experimental melanomas were set up in mice by painting their skins with a carcinogen. These experimental melanomas display certain morphological characteristics close to those of human melanomas but are less aggressive biologically. Compound B was assayed at DMT/4 (20 mg/kg), DMT/8 (10 mg/kg) and DMT/16 (5 mg/kg) three times a week. […] Indeed the T/C index values measured were respectively 95%, 107% and 81%.

[3] = tested on: Capan-2 orthotopic xenograft; experiment: Orthotopic pancreatic cancer model; assay type: in vivo, nude mice
Protocol: as §3
In addition to the xenografted models of Example 6, the antitumoral activity of compound B was evaluated in orthotopic xenografted models PC3 (Prostate) and Capan2 (Pancreas).
Compound B was further evaluated on in vivo orthotopic Capan-2 pancreatic cancer model by measurement of T/C index, as described in Example 6 of the specification.

Question: How did the “Effect on cell cycle kinetics, G0/G1” value ([1]; HCT-15, 24 h) turn out when `CC1CC2(NC(=O)CS2)C2(O)OC3CC4(C=O)C(CCC5C4CCC4(C)C(C6=CC(=O)OC6)CCC54O)CC3OC2O1` (centres unmarked) [2″oxo-voruscharin, 2″ oxo-voruscharin] was run?
Answer: n.s.

Question: And the “Effect on cell cycle kinetics, G2/M” value ([1]; HCT-15, 24 h)?
Answer: n.s.

Question: What about the “Effect on cell cycle kinetics, S” value ([1]; HCT-15, 24 h) of the same molecule?
Answer: n.s.

Question: What about the “Effect on cell cycle kinetics, G0/G1” value ([1]; HCT-15, 72 h) of the same molecule?
Answer: n.s.

Question: What about the “Effect on cell cycle kinetics, G2/M” value ([1]; HCT-15, 72 h) of the same molecule?
Answer: n.s.

Question: And the “Effect on cell cycle kinetics, S” value ([1]; HCT-15, 72 h)?
Answer: ***

Question: What about the “cell cycle, S-phase” value ([1]; HCT-15, 72 hours, highest concentration tested (4.3×10^−8 M uscharin, 1.2×10^−8 M 2″oxo-voruscharin)) of the same molecule?
Answer: accumulation in S-phase

Question: What about the “Effect on cell cycle kinetics, G0/G1” value (J82 human cancer cells; J82, 24 h) of the same molecule?
Answer: n.s.

Question: And the “Effect on cell cycle kinetics, G2/M” value (J82 human cancer cells; J82, 24 h)?
Answer: n.s.

Question: What about the “Effect on cell cycle kinetics, S” value (J82 human cancer cells; J82, 24 h) of the same molecule?
Answer: n.s.

Question: What about the “Effect on cell cycle kinetics, G0/G1” value (J82 human cancer cells; J82, 72 h) of the same molecule?
Answer: n.s.

Question: And the “Effect on cell cycle kinetics, G2/M” value (J82 human cancer cells; J82, 72 h)?
Answer: n.s.

Question: What about the “Effect on cell cycle kinetics, S” value (J82 human cancer cells; J82, 72 h) of the same molecule?
Answer: **

Question: And the “cell cycle, S-population” value (J82 human cancer cells; J82, only after 72 hours of treatment at both concentrations tested)?
Answer: increase of S-population

Question: With `CC1CC2(NC(=O)CS2)C2(O)OC3CC4(CO)C(CCC5C4CCC4(C)C(C6=CC(=O)OC6)CCC54O)CC3OC2O1` (centres unmarked) [Compound B] as the molecule, how does the T/C index (A549 (lung cancer); 3×40 mg/kg) read?
Answer: 124%

Question: And the T/C index (A549 (lung cancer); 7×20 mg/kg)?
Answer: 152%

Question: And the T/C index (A549 (lung cancer); 10×10 mg/kg)?
Answer: 186%

Question: And the “weight of A549-tumor bearing mice (toxic side effects)” value (A549 (lung cancer); constant administrations, 40, 20 and 10 mg/kg)?
Answer: did not lose any significant weight

Question: What about the “weight of A549-tumor bearing mice” value (A549 (lung cancer); first week of administration at 40 mg/kg) of the same molecule?
Answer: significant loss of weight

Question: What about the “survival periods of MCF-7-TD5 tumor bearing mice” value ([2]; 60 administrations of 10 mg/kg and 5 mg/kg) of the same molecule?
Answer: not sufficient to significantly increase the survival periods

Question: And the MCF-7-TD5 tumor growth ([2]; 60 administrations of 10 mg/kg and 5 mg/kg, five times a week)?
Answer: significantly decreased MCF-7-TD5 tumor growth

Question: And the “weight of MCF-7-TD5 tumor bearing mice (toxic side effects)” value ([2]; constant administrations, 10 mg/kg and 5 mg/kg)?
Answer: did not lose any significant weight

Question: And the T/C index (C32 (melanoma cancer); C32, 21×5 mg/kg)?
Answer: 81%

Question: And the T/C index (C32 (melanoma cancer); C32, 25×20 mg/kg)?
Answer: 95%

Question: And the T/C index (C32 (melanoma cancer); C32, 28×10 mg/kg)?
Answer: 107%

Question: And the tumor area (C32 (melanoma cancer); C32-tumor bearing mice, most important effect at 10 mg/kg)?
Answer: decreased the tumor area

Question: What about the “weight of C32-tumor bearing mice (toxic side effects)” value (C32 (melanoma cancer); constant administration, 20, 10 and 5 mg/kg) of the same molecule?
Answer: did not loose any significant weight

Question: What about the T/C value ([3]; i.p. DMT/4 (20 mg/kg), 3ix5w, from 21st day post-graft) of the same molecule?
Answer: 129%

Question: And the T/C value ([3]; i.p. DMT/8 (10 mg/kb), 5ix8w, from 14th day post-graft)?
Answer: 127%
